For orientation: solubility (kinetic) means solubility judged after dilution from a stock solution rather than from solid. By solubility is commonly meant the concentration that dissolves in the medium under given conditions.

Data set [1] in a line: Drying stability (vacuum, RT/50/70 °C). Type of data set: physicochemical.
A short description of data set [2]: Kinetic solubility (37 °C/24 h). Type of data set: physicochemical.
Data set [3] is described as follows: Hygroscopicity by DVS at 25 °C. It counts as physicochemical. Here is the method: To understand the hygroscopicity of glutarate type A, DVS was employed to measure the mass change as a function of relative humidity at 25 °C (FIG. 14).
Dynamic vapour sorption was performed with ADVENTURE series DVS and Intrinsic-1 DVS at 25 °C under nitrogen blow. Approximately 30 milligrams of material were used. Anhydrate was analyzed using methods below: 0% RH to 95% RH to 0% RH at 10% RH (5% RH from 90% RH to 95% RH to 90% RH). After equilibrium at ambient conditions (50% RH), the hydrate sample was analyzed using method below: 1. Ambient relative humidity to 95% RH at 10% RH (5% from 90% RH to 95% RH). 2. 95% RH to 0% RH at 10% RH (5% from 95% RH to 90% RH). 3. 0% RH to 95% RH at 10% RH (5% RH from 90% RH to 95% RH).
The moisture sorption profile was generated at 25 °C using a DVS moisture balance flow system (Model Advantage 1.0) with the following conditions: sample size approximately 10 mg, drying 25 °C for 60 minutes, adsorption range 0% to 95% RH, desorption range 95% to 0% RH, and step interval 5%. The equilibrium criterion was <0.01% weight change in 5 minutes for a maximum of 120 minutes.

Data set [4] is described as follows: Approximate solubility of starting material at RT. Type of data set: physicochemical. The conditions noted are these: RT (~27 °C). On the procedure:
The solubility of starting material (E0007-A01-02) was estimated at RT (~27 °C).
Specifically, approximate 2 mg of solid was added into an HPLC glass vial. The solvents below were then added stepwise ([…]) into the vials until the solids were dissolved or a total volume of 1.0 mL was reached.
The solubility data were used to guide the solvent selection in polymorph screening. Approximate solubility of starting material (E0007-A01-02) at RT: […]

A short description of data set [5]: Polymorph form conversion / solid-state stability (XRPD, VT-XRPD). It counts as physicochemical. Here is the method:
To confirm stability and suitability of Ulodesine hemi-glutarate Type A, a polymorph screening was conducted to search for other potential crystal forms and identify the most suitable form to confirm the previous findings.
Using glutarate Type A as starting material, a polymorph screening was conducted under 100 conditions through methods of anti-solvent addition, solid vapor diffusion, liquid vapor diffusion, slow evaporation, polymer-induced crystallization, temperature cycling, slurry at room temperature (RT)/50 °C and slow cooling.
X-ray powder diffraction data at variable temperature was collected at on a Malvern Panalytical Empyrean diffractometer. Flat a few milligrams of sample on a sample holder and compact it by a glass slide with protection of a piece of weighting paper. An X-ray generator of 1800 W was employed at 45 kV and 40 mA and was equipped with an X-ray tube of Cu (Kα), with the Kα2/Kα1 intensity ratio of 0.50 (1.54439 Å/1.5406 Å). Data were collected from 3° to […] (2θ) at a step size of 0.026° (2θ) with time per step of 49.7 s.
Glutarate Type B (E0007-A01-06) was only observed by heating glutarate Type A to 130 °C using X-ray powder diffractometer at variable temperature mode (VT-XRPD).
Based on the characterization results, glutarate Type C was speculated as a channel hydrate (the water molecules of a channel hydrate lie next to other water molecules of adjoining unit cell, forming channels through the crystals).
Type C was re-prepared at 100 mg in triplicate via temperature cycling slurry in anisole/MeOH (1:2, v/v).

A short description of data set [6]: Physicochemical stability (2-week, open conditions).
Experiment in data set [7]: as above
The note with it: for remaining at 336 h: 2-week; for remaining at 336 h / remaining at 240 h: read-out: Purity; for remaining at 240 h: 10-day. The source says: SHIMADZU LC-20AD was employed to detect the chemical purity HPLC method for purity test

Data set [8] concerns DIO mouse model. The data set is described as follows: Example 2: low and intermittent dosing in DIO mouse model. Type of data set: in vivo, C57/BL6J mice. The note with it: 2 mg/kg p.o., 3 days a week, vs control. The source says:
The aim of this study is to determine the effect of a low and intermittent dosing regime of ulodesine hemi glutarate on the following parameters: weight gain, food intake, fasting blood glucose concentration, serum insulin, serum cholesterol, plasma liver enzymes aspartate aminotransferase (AST) and alanine transaminase (ALT), inguinal white adipose tissue (iWAT), BAT; inosine in plasma and NAD+ in whole blood, and expression of lipogenesis (fatty acid synthesis) markers in iWAT and thermogenic markers in BAT. The study will assess ulodesine hemi glutarate efficacy on the listed parameters in the DIO mouse model of obesity and metabolic dysfunction.
Method: C57/BL6J mice were fed obesogenic diet D12492 (60 kcal % fat) from age 6 weeks. Nineteen week old mice (approximately 50 g) were either treated with vehicle (control) or ulodesine hemi glutarate at 2 mg/kg for 3 days a week (days 1, 2 and 3), given orally, over a 28 day period. On day minus 2 and on day 28, animals were fasted for 6 hr (only food withdrawn) and blood was collected for both blood glucose and cholesterol. On day 28 plasma liver enzymes (AST and ALT) and insulin were determined and additional plasma and whole blood was frozen and used for inosine and NAD+ measurement. BAT and iWAT was collected at the end of the study, weighed and quantitative PCR was performed for the lipogenesis markers Stearoyl CoA desaturase 1 (SCD-1) and fatty acid synthetase (FAS) and the thermogenesis marker uncoupling protein 1 (UCP-1). Inosine and NAD+ levels in stored plasma and whole blood respectively were determined by LC/MS/MS.

Data set [9] relates to DIO mouse model. The data set is described as follows: Example 3: liver parameters in DIO mouse model. Type of data set: in vivo, C57/BL6J mice. The note with it: 2 mg/kg p.o., 3 days a week, 8 weeks. The source says: The aim of this study is to determine the effect of low and intermittent dosing of ulodesine hemi glutarate on the liver parameters: liver weight, total cholesterol, triglycerides, AST and ALT. The study assessed ulodesine hemi glutarate efficacy on the listed parameters in the DIO mouse model of obesity and metabolic dysfunction.
Method: C57/BL6J mice were fed obesogenic diet D12492 (60 kcal % fat) from age 6 weeks. Eighteen weeks old mice (approximately 40 g) were either treated with vehicle (control) or ulodesine hemi glutarate at 2 mg/kg for 3 days a week (days 1, 2 and 3) given orally for 8 weeks. At the end of eight weeks, the liver was removed and the following parameters were assessed: total cholesterol, triglycerides, AST and ALT.

The structures appear in SMILES notation. Values after ≈ are worked out from the molar mass of the structure shown. Read-outs that look alike come from different tables or passages of the source. A value given as a limit tells only on which side of the number the result lay.

Turning to `O=c1[nH]cnc2c(CN3C[C@H](CO)[C@@H](O)C3)c[nH]c12` [Glutarate Type A], the “change in crystallinity on vacuum drying” value in data set [1] (70 °C) was “slight decrease”; in [1] (overnight, 50 °C), “no change in crystallinity”; in data set [1] (overnight, RT) it was “no change in crystallinity”. The kinetic solubility at 24 h in data set [2] (FaSSIF), in data set [2] (FeSSIF), in data set [2] (SGF) and in data set [2] (water) was more than 16800 µg/mL each time. Besides, the water uptake in data set [3] (25 °C/80% RH) stood at 1.1%; in data set [3] (25 °C/95% RH) it was 10.4%. The hygroscopicity result in [3] (25 °C/80% RH, in words) is given as “slightly hygroscopic”. The “form change after DVS” value in [3] (XRPD after DVS) is “no form change”. Moreover, the solubility in [4] (H2O) was more than 36000 µg/mL; in [4] (organic solvent or mixture, 1,4-Dioxane), less than 2000 µg/mL; in data set [4] (organic solvent or mixture, 2-MeTHF), less than 1900 µg/mL; in data set [4] (organic solvent or mixture, ACN) it was less than 1900 µg/mL; in data set [4] (organic solvent or mixture, Acetone/H2O (9:1)) it was less than 1900 µg/mL; in data set [4] (organic solvent or mixture, Acetone) it was less than 2100 µg/mL. Further, the solubility in data set [4] (organic solvent or mixture, CPME) was less than 1900 µg/mL; in data set [4] (organic solvent or mixture, DCM/MeOH (1:1)), less than 1900 µg/mL; in [4] (organic solvent or mixture, DCM), less than 1800 µg/mL; in data set [4] (organic solvent or mixture, DMAc), 2000 to 6500 µg/mL (≈ 7.57 to 24.6 mM); in data set [4] (organic solvent or mixture, DMF) it was 2300 to 7600 µg/mL (≈ 8.7 to 28.8 mM); in data set [4] (organic solvent or mixture, DMSO), more than 39600 µg/mL. Besides, the solubility is less than 2100 µg/mL in data set [4] (organic solvent or mixture, EtOAc); 22600 to 45200 µg/mL (≈ 85.5 to 171 mM) in data set [4] (organic solvent or mixture, EtOH/H2O (2:1)); 2100 to 6900 µg/mL (≈ 7.95 to 26.1 mM) in data set [4] (organic solvent or mixture, EtOH/H2O (4:1)); less than 2000 µg/mL in [4] (organic solvent or mixture, EtOH/H2O (9:1)); less than 2100 µg/mL in [4] (organic solvent or mixture, EtOH); less than 1800 µg/mL in data set [4] (organic solvent or mixture, IPA). Besides, the solubility is less than 2000 µg/mL in data set [4] (organic solvent or mixture, IPAc); less than 1900 µg/mL in data set [4] (organic solvent or mixture, MEK); less than 1800 µg/mL in data set [4] (organic solvent or mixture, MIBK); less than 2000 µg/mL in data set [4] (organic solvent or mixture, MTBE); 1900 to 6500 µg/mL (≈ 7.19 to 24.6 mM) in data set [4] (organic solvent or mixture, MeOH); 1900 to 6300 µg/mL (≈ 7.19 to 23.8 mM) in data set [4] (organic solvent or mixture, NMP). The solubility in data set [4] (organic solvent or mixture, THF/H2O (9:1)) was less than 2000 µg/mL; in data set [4] (organic solvent or mixture, THF), less than 2000 µg/mL; in [4] (organic solvent or mixture, Toluene) it was less than 1900 µg/mL; in data set [4] (organic solvent or mixture, n-Heptane), less than 2000 µg/mL. The “solid-state properties and stability” value in data set [5] (polymorph screening overall) is “good solid-state properties and stability”. The Form change entry in data set [6] (2-week, 25 °C/60% RH) was “No”; in data set [6] (2-week, 40 °C/75% RH), “No”; in data set [6] (2-week, 60 °C), “No”; in data set [6] (10-day, 25 °C/60% RH), “No”; in data set [6] (10-day, 40 °C/75% RH) it was “No”; in [6] (10-day, 60 °C), “No”. Besides, the figures for the remaining at 336 h in data set [7] (25 °C/60% RH), in data set [7] (40 °C/75% RH) and in [7] (60 °C) were 97.8%, 97.7% and 97.3%, respectively. Also, the figures for the remaining at 240 h in [7] (25 °C/60% RH), in data set [7] (40 °C/75% RH) and in data set [7] (60 °C) were 97.7%, 97.8% and 97.6%, respectively. Further, in data set [7] (initial), the Initial purity is 97.9 area %.

Turning to `O=c1[nH]cnc2c(CN3C[C@H](CO)[C@@H](O)C3)c[nH]c12` [Glutarate Type B], the “form conversion on cooling back to RT” value in data set [5] (after heating to 130 °C, cooled to RT) was “quickly converted to glutarate Type A”. Moreover, the solid form stability result in data set [5] (ambient condition) is reported as “meta-stable form at ambient condition”.

As to `O=c1[nH]cnc2c(CN3C[C@H](CO)[C@@H](O)C3)c[nH]c12` [Glutarate Type C], the “form change after heating to 110 °C” value in data set [5] (110 °C) is recorded as “no form change”. Further, the “form change after drying” value in data set [5] (RT overnight) is listed as “no form change”. Moreover, the “Form change after heating” value in data set [5] (after heating) was “No”. Besides, the “stability compared with glutarate Type A” value in [5] (drying under ambient condition) is given as “lower stability compared with glutarate Type A”. Also, the “form conversion after drying under ambient condition” value in [5] (wet cakes from screening, ~25 °C/30% RT) was “(partially) converted to glutarate Type A”; in data set [5] (wet cakes, ~6 h (~20 °C/32% RH)), “converted to glutarate Type A”.

With `O=c1[nH]cnc2c(CN3C[C@H](CO)[C@@H](O)C3)c[nH]c12` [ulodesine], in data set [8] (28 days), the blood glucose entry is reported as “decreases”, the iWAT/Body weight % result is recorded as “significant decrease” and the plasma cholesterol result is given as “decreases”. In data set [8] (day 28), the insulin levels result is recorded as “decreases”, the “plasma ALT” value was “decreases” and the “plasma AST” value is given as “decreases”. Also, in data set [9], the “liver ALT” value was “decreases in triglycerides and ALT with treatment they did not achieve statistical significance”; the “liver AST” value is recorded as “significant decrease”; the “liver total cholesterol (TC)” value is listed as “significant decrease”; the liver triglycerides entry was “decreases in triglycerides and ALT with treatment they did not achieve statistical significance”.

The values above are taken from US20260364078A1, “PURINE NUCLEOSIDE PHOSPHORYLASE INHIBITORS FOR THE TREATMENT OF METABOLIC SYNDROME AND ASSOCIATED CONDITIONS” (METASHAPE PHARMA AG, priority 2022, published 2026).
